# Experimental data from patent US20220347144A1, “COMPOSITIONS AND METHODS FOR PREVENTING AND/OR REDUCING WEIGHT GAIN AND ASSOCIATED CONDITIONS” (University of Virginia Patent Foundation, priority 2019, published 2022).
# Assays:
# [1] = tested on: C57Bl/6J mice; assay: Body composition (EchoMRI); type: in vivo, mouse
# Procedure: (§1) Animals. Animal experiments were approved by the Animal Care and Use Committee of the University of Virginia (Charlottesville, Va., United States of America). C57Bl/6J mice were obtained from Jackson Laboratories (Bar Harbor, Me., United States of America). Mice were group housed in standard cages with up to five mice per cage with a 12 hour dark/light cycle. All mice were weighed once per week. Weekly food consumption was measured, with the amount consumed per cage averaged amongst the mice in the cage. Body composition was determined by use of an ECHOMRI™-100H Body Composition Analyzer (EchoMRI LLC, Houston, Tex., United States of America).
# (§2) Diets. Diets were obtained from Research Diets (New Brunswick, N.J., United States of America). The low fat chow was D12450Ji (10 kcal % fat) and the high fat chow was D12492 (60 kcal % fat). These two chows were reformulated by replacing a portion of dietary fat with an ethyl ester of nervonic acid from Nu-Chek Prep (Elysian, Minn., United States of America) to produce isocaloric diets with nervonic acid at 6 g per kg of diet (0.6%). For the three most prevalent fatty acids in these diets: C16 comprised 14.4%, 11.7%, 18.5%, and 18.1%; C18:1 comprised 27.4%, 22.8%, 32%, and 31.4%; and C18:2 comprised 39.6%, 36.2%, 26.9%, and 26.5% of the fatty acid composition of the Cnt, Cnt+NA, HFD, and HFD+NA diets, respectively. Mice were started on diets at ˜8 weeks of age and given ad libitum access.
# [2] = tested on: C57Bl/6J mice; assay: Liver ceramide and lipid composition by LC-MS/MS in mice on control or high fat diets with or without nervonic acid; type: in vivo, mouse
# Procedure: as §1, §2
# (§3) Sphingolipid and acylcarnitine measurements by liquid chromatography-mass spectrometry. Sphingolipids were analyzed as described previously (Wijesinghe et al., 2010) for FIG. 1B or with modifications described herein. Liver samples from rats fed a low or high fat diet were obtained from Scot Kimball's laboratory at the Pennsylvania State University (Hershey, Pa.). Mouse liver samples were analyzed with modifications as described previously (Pearson et al., 2020). For FIGS. 1A and 5D, liver homogenates were subjected to lipid extraction and subjected to liquid chromatography-electrospray ionization mass spectrometry was performed on an I-class Acquity with a 2.1 mm×10 cm C18 CSH […] particle size column coupled to an in-line TQ-S mass spectrometer from Waters Corporation (Milford, Mass., United States of America).
# [3] = tested on: SIRT1; assay: Liver transcript analysis by qRT-PCR; type: in vivo, mouse; conditions: HFD+NA
# Procedure: (§4) Transcript analysis. RNA was isolated from mouse liver by manual homogenization in TRIzol reagent (Invitrogen, Carlsbad, Calif., United States of America) following the manufacturer's instructions. Total RNA underwent DNase I treatment (New England Biolabs, Ipswich, Mass., United States of America) and cDNA was made using the ISCRIPT™ brand cDNA Synthesis Kit (Bio-Rad Laboratories, Hercules, Calif., United States of America). Quantitative real-time PCR was carried out using Bio-Rad SYBR® green probes (PPARα Bio-Rad Assay ID qMmuCID0005156; SIRT1 Bio-Rad Assay ID qMmuCID0015511; PGC1α Bio-Rad Assay ID qMmuCID0006032). The TATA binding protein (Bio-Rad Assay ID qMmuCID0040542) gene was used to normalize target gene abundance. Biological samples were run in triplicate.
# [4] = tested on: PPARα; assay: Liver transcript analysis by qRT-PCR; type: in vivo, mouse; conditions: HFD+NA
# Procedure: as §4
# [5] = tested on: PGC1α; assay: Liver transcript analysis by qRT-PCR; type: in vivo, mouse; conditions: HFD+NA
# Procedure: as §4
# [6] = tested on: C57Bl/6J mice; assay: Average food consumption over 12 weeks; type: in vivo, mouse
# Procedure: as §1
# [7] = tested on: C57Bl/6J mice; assay: Energy expenditure, respiratory exchange ratio and locomotion in metabolic cages; type: in vivo, mouse
# Procedure: For determination of energy expenditure, respiratory exchange ratios, and activity, mice were placed in an Oxymax metabolic chamber systems (Comprehensive Laboratory Animal Monitoring System, CLAMS, from Columbus Instruments (Columbus, Ohio, United States of America). Oxygen consumption (V02) and carbon dioxide production (VCO2) were determined for each mouse every 18 minutes over 72 hours with ambulatory activity assessed every minute over this same time period. Only the last two complete light and dark cycles (spanning 48 hours) were used for data analysis. Feces was collected from these studies and shipped to the Mouse Metabolic Phenotyping Core at the University of Texas Southwestern for bomb calorimetry analysis using a Parr 6200 Isoperibol Calorimeter (Parr Instrument Company, Moline, Ill., United States of America).
# [8] = tested on: HEK293 cells; assay: CerS2 siRNA knockdown in HEK293 cells with nervonic acid treatment, C24:1 ceramide; type: cell-based; conditions: 1 μM NA for 24 hours
# Procedure: Cell culture. HEK293 cells were grown in DMEM containing 10% FBS. Cells were transfected with Silencer Select siRNA to CerS2 (s26789) or Silencer Select negative control No. 1 using LIPOFECTAMINE® 3000 brand transfection reagent following the manufacturer's protocol. All culture reagents were obtained from Thermo Fisher Scientific (Waltham, Mass., United States of America). 48 hours post-transfection, cells were treated with vehicle or 1 μM nervonic acid for 24 hours.
# as §3
substance,measurement,setting,value
(Z)-tetracos-15-enoic acid [NA],average body fat content,[1]; HFD+NA fed animals at the time of sacrifice (HFD: 16.44 g/mouse),9.48 g/mouse
same,fat mass,[1]; HFD+NA versus HFD,reduction in fat mass
same,lean mass,[1]; HFD+NA versus HFD,"slightly, but significantly, reduced"
same,lean mass,[1]; HFD+NA versus control or control+NA groups,not significantly different
same,water mass,[1]; all experimental groups,similar
same,lean mass,[1]; control+NA versus control,not significantly different
same,hepatic C20 and C22-ceramides,"[2]; HFD-fed mice, NA-supplemented diet",back to control levels
same,C24:1-lysophosphatidylcholine in liver,[2]; NA-enriched control and HFDs,elevated
same,diacylglyceride C16:0/C24:1 in liver,[2]; NA-enriched control and HFDs,elevated
same,diacylglyceride C18:0/C24:1 in liver,[2]; NA-enriched control and HFDs,elevated
same,diacylglyceride C18:1/C24:1 in liver,[2]; NA-enriched control and HFDs,elevated
same,diacylglyceride C18:2/C24:1 in liver,[2]; NA-enriched control and HFDs,elevated
same,total amounts of ceramides in liver,[2]; between diet groups with and without NA,consistent between diet groups
same,C24:1-hexosylceramide in liver,"[2]; both diets, NA 0.6%",increasing
same,C24:1-sphingomyelin in liver,"[2]; both diets, NA 0.6%",increasing
same,other ceramides C20-C26 in liver,"[2]; normal and HFD fed groups, NA 0.6% by diet weight",concomitant decreases
same,C24:1-ceramides in liver,"[2]; normal and HFD fed groups, ethyl ester of NA 0.6% by diet weight",increases
same,SIRT1 mRNA levels in liver,[3],restored
same,PPARα mRNA levels in liver,[4],increased
same,PGC1α mRNA levels in liver,[5],restored
same,average food consumption,"[6]; HFD+NA versus HFD, 12 weeks",similar
same,food consumption,[6]; control+NA versus control,not significantly different
same,ambulatory activity,[7]; HFD+NA versus HFD,similar
same,oxygen consumption (VO2),"[7]; HFD+NA versus HFD, light and dark cycle",significantly lower
same,carbon dioxide production (VCO2),[7]; HFD+NA versus control and HFD groups,significant reduction
same,ambulatory activity,[7]; control+NA versus control,similar
same,heat production,[7]; control+NA versus control,No differences
same,respiratory exchange ratio (RER),"[7]; control+NA versus control, light and dark cycles",No statistical changes
same,C24:1 ceramide after CerS2 knockdown,[8],only partially restored
